# Legend:
# [1] = tested on: N. gonorrhoeae (LNP16626); test: Bacterial survival assay (3 h), CFU counts; format: cell-based, Neisseria gonorrhoeae; conditions: 50 μM, 3 h, CFU counts
# Experimental: (§1) Bacterial Survival Assay (3 h)
# (§2) To measure bacterial survival (FIGS. 2 and 4), different bacteria were exposed to various concentrations of the compounds (as indicated) in their specific growth media (see the culture conditions above) for 3 h at 37° C. To perform this assay, all strains were grown overnight in their corresponding agar media. Cell-suspension corresponding to an OD600=0.05 were subsequently prepared. In parallel, fresh stock DMSO solutions of the compounds were prepared (100×, with final concentrations being indicated in the different figures) and 1.8 μL of the corresponding solutions were added per well of 96-well plates. In each well, 178.2 μL of bacterial suspension were subsequently added. Bacteria were allowed to grow during […] at 37° C. with 5% CO2. After incubation, serial dilutions (until 10^−6) were performed and 50 μL of each diluted solution were spread on agar plates. After an overnight incubation at 37° C. with/without 5% CO2, CFU were enumerated. All these assays were performed at least in triplicates.
# (§3) Therefore, the bactericidal activity was assessed for the 4 compounds harboring a BPh4^− identified from the initial screen described above (AnIII-7, AnIII-6, AnII-18, NaBPh4). N. meningitidis was treated with 50 μM of each compound and the % survival cells (compared with DMSO 1% control) was measured using serial dilutions and CFU counts. […] To verify if the bactericidal effect could be observed for the other pathogen of the Neisseria family, a clinical isolate of. N. gonorrhoeae (LNP16626 [3]) was also treated with 50 μM of the same compounds, respectively, using the same assay.
# (§4) The MBC (minimum bactericidal concentration that kill >99.999%), the concentration necessary to completely abrogate bacterial survival after a 3 h exposure to NaBPh4, was next assessed.
# [2] = Partition coefficient (Log P), shaking flask method (HPLC-UV); format: physicochemical; conditions: octanol/water
# Text: As well-known to the skilled person, when expressing lipophilicity as log P, P is the partition coefficient; that is the ratio of the concentrations of the compound between a hydrophobic phase and a hydrophilic phase (forming a biphasic liquid mixture), generally water and octanol.
# (§5) The measurement of log P is well described in the literature—see e.g. Román, I. P.; Mastromichali, A.; Tyrovola, K.; Canals, A.; Psillakis, E. Rapid Determination of Octanol-Water Partition Coefficient Using Vortex-Assisted Liquid-Liquid Microextraction. J. Chromatogr. A 2014, 1330, 1-5; and Yiantzi, E.; Psillakis, E.; Tyrovola, K.; Kalogerakis, N. Vortex-Assisted Liquid-Liquid Microextraction of Octylphenol, Nonylphenol and Bisphenol-A. Talanta 2010, 80 (5), 2057-2062, both of which are incorporated herein by reference.
# as §5, with “Partition coefficients (Log P) were determined using” for “The measurement of log P is well described in”, “shaking flask method (HPLC-UV)—see” for “literature—see e.g.”
# N. meningitidis = test: Bacterial survival assay (3 h), CFU counts; format: cell-based, Neisseria meningitidis; conditions: 50 μM, 3 h, CFU counts vs DMSO 1% control
# Experimental: as §1, §2, §3, §4
# [3] = tested on: N. meninigitidis (LNP24198) expressing luciferase (LuxABCDE); test: N. meningitidis luminescent strain growth assay (16 h); format: cell-based, Neisseria meningitidis; conditions: for MIC: 16 h
# Experimental: N. meningitidis Luminescent Strain Growth Assay (16 h)
# To perform the library screening (FIG. 1) or to compare the activity of the different boron-containing salts (FIG. 3), the amount of light produced after 16 h of growth for N. meningitidis luminescent strain was measured. Contrarily to optical density (OD) readings which can be misleading due to the absorbance of dead cells, this measurement is directly correlated to the number of live cells, as the half-life of the luciferase and its substrate are limited and that the emission of light is therefore not subsisting after the death of the cells. To perform this assay, N. meninigitidis (LNP24198) expressing luciferase (LuxABCDE) was grown overnight under the control of the constitutive promoter porBp in GCB agar media, and a cell-suspension corresponding to an OD600=0.01 was subsequently prepared. In parallel, fresh stock DMSO solutions of the compounds were prepared (100×, with final concentrations being indicated in the different figures) and 1.8 μL of the corresponding solutions were added per well of 96-well plates. In each well, 178.2 μL of bacterial suspension were subsequently added. Bacteria were allowed to grow during 16 h at 37° C. with 5% CO2. The emitted light was measured using a 96-well plate luminometer (PerkinElmer Wallac 1420 Victor^3) and results are expressed in relative light unit (RLU). All these assays were performed at least in triplicates.
# To screen molecules for their antibacterial activity, a luminescent system was used, as previously described for other bacteria. A clinical isolate of N. meninigitidis (LNP24198) expressing luciferase (LuxABCDE) under the control of the constitutive promoter porBp was used, as similarly described, located in the intergenic region next to NMB1732. More than 2400 compounds from different origins were screened to identify candidates with the ability to inhibit the growth of N. meningitidis after 16 h at 37° C. […] It is noteworthy that stock solutions for all tested compounds were prepared in DMSO and that the final DMSO concentration of the tested solutions was kept at 1%, a concentration which has proven not to affect the growth of N. meningitidis (FIG. 1A). […] An investigation of the effect of the BPh4^− moiety was then pursued.
# To exclude any salt-specific effect, the effect of several BPh4^− and BF4^− salts on the growth of N. meningitidis luminescent strain was tested. The growth of N. meningitidis was measured after a 16 h-exposure to different concentrations of various BPh4^− and BF4^− salts. From this assay, the MIC (minimum inhibitory concentration, the lowest concentration that prevents visible bacterial growth, <800 RLU) was calculated. All BPh4 salts tested (sodium, ammonium and potassium) were all highly toxic for N. meningitidis.
# Several borate compounds were prepared and their ability to inhibit N. meningitidis growth was assessed using the luminescent system described at Example 2.
# [4] = minimum inhibitory concentration, N. meningitidis growth, luminescent system (<800 RLU)
Compound,"MIC [3, 4]",logP [2],MIC ([3]; Neisseria meningitidis) [µM],further results
"F[B-](F)(F)F [BF4, reference compound]",–,–,–,survival of N. gonorrhoeae [1]: does not exhibit anti-bacterial activity; Log P [2]: about −1.6; survival of N. meningitidis (N. meningitidis): does not exhibit anti-bacterial activity
"c1ccc(B(c2ccccc2)c2ccccc2)cc1 [BPh3, triphenylborane, reference compound]",–,–,–,"toxicity / effect on growth of N. meningitidis luminescent strain (FIG. 3) ([3]; 16 h-exposure, different concentrations): No observable toxicity"
"F[B-](F)(F)c1ccccc1.[K+] [Compound 2, Potassium trifluoro(phenyl)borate, reference compound]",>250 µM,–,–,–
"C[B-](c1ccccc1)(c1ccccc1)c1ccccc1 [Compound 5, Sodium methyltriphenylborate]",–,-0.96 ± 0.1,25,–
"CC[B-](c1ccccc1)(c1ccccc1)c1ccccc1 [Compound 6, Sodium ethyltriphenylborate]",–,0,25,–
"CCC[B-](c1ccccc1)(c1ccccc1)c1ccccc1 [Compound 7, Sodium n-propyltriphenylborate]",–,0.8 ± 0.2,5,–
"CCCCCC[B-](c1ccccc1)(c1ccccc1)c1ccccc1 [Compound 9, Sodium hexyltriphenylborate]",–,2.83 ± 0.02,1,–
"CCCCCCC[B-](c1ccccc1)(c1ccccc1)c1ccccc1 [Compound 10, Sodium heptyltriphenylborate]",–,3.1 ± 0.05,1,–
"CCCCCCCC[B-](c1ccccc1)(c1ccccc1)c1ccccc1 [Compound 11, Sodium octyltriphenylborate]",–,4.1 ± 0.3,1,–
"Cc1ccc([B-](c2ccccc2)(c2ccccc2)c2ccccc2)cc1.[Na+] [Compound 12, Sodium tolyltriphenylborate]",25 µM,–,–,Log P [2]: 0.41±0.02
"Cc1ccc([B-](c2ccccc2)(c2ccc(C)cc2)c2ccc(C)cc2)cc1.[Na+] [Compound 14, Sodium tris(4-methylphenyl)(phenyl)borate]",5 µM,–,–,Log P [2]: 2.5±0.2
"Cc1ccc([B-](c2ccc(C)cc2)(c2ccc(C)cc2)c2ccc(C)cc2)cc1.[Na+] [Compound 15, sodium tetrakis(tolyl)borate]",Active but MIC not determined because of abnormal background signal,–,–,–
"Fc1ccc([B-](c2ccc(F)cc2)(c2ccc(F)cc2)c2ccc(F)cc2)cc1 [Compound 16, sodium tetrakis(4-fluorophenyl)borate]",–,–,2.5,–
"Oc1ccc2ccccc2c1/C=N/c1ccc([B-](c2ccccc2)(c2ccccc2)c2ccccc2)cc1 [Compound 19, sodium {4-[(E)-[(2-hydroxynaphthalen-1-yl)methylidene]amino]phenyl}triphenylborate]",–,–,2.35,–
c1ccc(P(c2ccccc2)c2nc3ccccc3n2Cc2ccc([B-](c3ccccc3)(c3ccccc3)c3ccccc3)cc2)cc1 [Compound 21],–,–,0.78,–
c1ccc([B-]2(c3ccccc3)[NH2+]CCO2)cc1 [Compound 22],–,–,75,–
"CC[C@H]1OC(=O)[C@H](C)[C@@H](O[C@H]2C[C@@](C)(OC)[C@@H](O)[C@H](C)O2)[C@H](C)[C@@H](O[C@@H]2O[C@H](C)C[C@H](N(C)C)[C@H]2O)[C@](C)(O)C[C@@H](C)C(=O)[C@H](C)[C@@H](O)[C@]1(C)O [erythromycin, reference compound]",–,–,–,"emitted light after 16 h of growth ([3]; erythromycin 3.5 μM, largest value of 10 replicates): < 800 RLU"
Potassium difluorodiphenylborate [Compound 3],37.5 µM,–,–,–
Sodium bis(4-methylphenyl)diphenylborate [Compound 13],5 µM,–,–,Log P [2]: 2.0±0.1
"Sodium tetrafluoroborate [Compound 4, reference compound]",>250 µM,–,–,–

# From patent publication US12421264B2 (INSTITUT NATIONAL DE LA RECHERCHE SCIENTIFIQUE, priority 2018, dated 2025)
